Results from BindingDB's records for doi:10.1002/ps.3406 (2013).

Target: Ryanodine receptor (Myzus persicae)
Assay: Binding affinity to Myzus persicae (green peach aphid) ryanodine receptor by radioligand binding assay

CNC(=O)c1cc(Cl)cc(C)c1NC(=O)c1cc(Br)nn1-c1ncccc1Cl [3-bromo-N-(4-chloro-2-methyl-6-(methylcarbamoyl)phenyl)-1-(3-chloropyridin-2-yl)-1H-pyrazole-5-carboxamide]
IC50: 2 nM
